From patent US20260265252A1, “SOLID STATE FORMS OF IMIPRIDONE DERIVATIVE” (CHIMERIX, INC., priority 2024, published 2026)
Structures can show the parent of a compound that is named as a salt.

Experiment: ICH-compliant stability study of ONC206-HCl Drug Substance (appearance, XRPD form, HPLC assay, purity/impurities, water content, particle size, microbial)
Assay type: physicochemical
Set-up: key to Each unidentified impurity (NMT 0.5% area) / Appearance (White to off-white solid) / Polymorphic form (XRPD) (Consistent with form 2 reference diffractogram): C = Conforms; A = Absence
Protocol: The purpose of the ICH-compliant stability study was to evaluate the performance to specifications of ONC206-HCl Drug Substance under specified container closure configuration, storage conditions, and intervals.
The study was performed according to ICH Q1A(R2) and QlE Guidance documents. […]
The Container Closure Systems were: • Primary container: LDPE bag, 4×8 inches (Source: Nexus—64378); bag closure PE 180 nm (Source: Entourage), • Secondary container: LDPE bag, 4×8 inches (Source: Nexus—64378); bag closure PE 180 nm (Source: Entourage), • Tertiary container: Heat-sealed foil bag, 15×30 (Source: SERCALIA S.L.—10234), and • Outer container: Plastic drum, 6 L (Source: Curtec, HDPE ref 54021) or Plastic drum, 3.6 L (Source: Curtec).

[1] = 30 ± 2° C./65% ± 5% RH intermediate conditions, 9 months
[2] = 30 ± 2° C./65% ± 5% RH intermediate conditions, 12 months
[3] = 40 ± 2° C./75% ± 5% RH accelerated conditions, 0 months
[4] = 40 ± 2° C./75% ± 5% RH accelerated conditions, 3 months
[5] = 40 ± 2° C./75% ± 5% RH accelerated conditions, 6 months
[6] = at all conditions, over the course of the study

O=C1C2=C(CCN(Cc3ccccc3)C2)N2CCN=C2N1Cc1ccc(F)cc1F [ONC206-HCl, 7-benzyl-4-(2,4-difluorobenzyl)-2,4,6,7,8,9-hexahydroimidazo[1,2-a]pyrido[3,4-e]pyrimidin-5(1H)-one]
Particle Size (Malvern) D10 (Report result μm) [1]: 30.5 μm | Particle Size (Malvern) D50 (Report result μm) [1]: 93.2 μm | Particle Size (Malvern) D90 (Report result μm) [1]: 197.0 μm | Polymorphic form (XRPD) (Consistent with form 2 reference diffractogram) [1]: C | Purity by HPLC (NLT 98.0% area) [1]: 100.0 % area | Total impurities (NMT 2.0% area) [1]: 0.00 % area | Water Content by Kf (Report result % w/w) [1]: 9.3 % w/w | Appearance (White to off-white solid) [2]: C | Assay by HPLC-UV (Anhydrous & Solvent Free basis) 97.0-103.0% w/w [2]: 100.0 % w/w | Each unidentified impurity (NMT 0.5% area) [2]: C | Particle Size (Malvern) D10 (Report result μm) [2]: 29.7 μm | Particle Size (Malvern) D50 (Report result μm) [2]: 93.7 μm | Particle Size (Malvern) D90 (Report result μm) [2]: 203.0 μm | Polymorphic form (XRPD) (Consistent with form 2 reference diffractogram) [2]: C | Purity by HPLC (NLT 98.0% area) [2]: 100.0 % area | Total impurities (NMT 2.0% area) [2]: 0.00 % area | Water Content by Kf (Report result % w/w) [2]: 9.3 % w/w | period over which stability is confirmed (40° C. (Table 40), 75% RH accelerated conditions): 6 months | Appearance (White to off-white solid) [3]: C | Assay by HPLC-UV (Anhydrous & Solvent Free basis) 97.0-103.0% w/w [3]: 101.6 % w/w | Each unidentified impurity (NMT 0.5% area) [3]: C | Particle Size (Malvern) D10 (Report result μm) [3]: 28.2 μm | Particle Size (Malvern) D50 (Report result μm) [3]: 91.4 μm | Particle Size (Malvern) D90 (Report result μm) [3]: 201.3 μm | Polymorphic form (XRPD) (Consistent with form 2 reference diffractogram) [3]: C | Purity by HPLC (NLT 98.0% area) [3]: 100.0 % area | Total impurities (NMT 2.0% area) [3]: 0.00 % area | Water Content by Kf (Report result % w/w) [3]: 9.3 % w/w | Appearance (White to off-white solid) [4]: C | Assay by HPLC-UV (Anhydrous & Solvent Free basis) 97.0-103.0% w/w [4]: 100.1 % w/w | Each unidentified impurity (NMT 0.5% area) [4]: C | Particle Size (Malvern) D10 (Report result μm) [4]: 28.1 μm | Particle Size (Malvern) D50 (Report result μm) [4]: 91.5 μm | Particle Size (Malvern) D90 (Report result μm) [4]: 199.0 μm | Polymorphic form (XRPD) (Consistent with form 2 reference diffractogram) [4]: C | Purity by HPLC (NLT 98.0% area) [4]: 100.0 % area | Total impurities (NMT 2.0% area) [4]: 0.00 % area | Water Content by Kf (Report result % w/w) [4]: 9.5 % w/w | Each unidentified impurity (Report RRT and % area for peaks ≥0.10% area) (40 ± 2° C./75% ± 5% RH accelerated conditions, 3 months, peak RRT 1.30): 0.10% aire | Appearance (White to off-white solid) [5]: C | Assay by HPLC-UV (Anhydrous & Solvent Free basis) 97.0-103.0% w/w [5]: 100.2 % w/w | Each unidentified impurity (NMT 0.5% area) [5]: C | Particle Size (Malvern) D10 (Report result μm) [5]: 29.2 μm | Particle Size (Malvern) D50 (Report result μm) [5]: 92.6 μm | Particle Size (Malvern) D90 (Report result μm) [5]: 201.0 μm | Polymorphic form (XRPD) (Consistent with form 2 reference diffractogram) [5]: C | Purity by HPLC (NLT 98.0% area) [5]: 100.0 % area | Total impurities (NMT 2.0% area) [5]: 0.00 % area | Water Content by Kf (Report result % w/w) [5]: 9.5 % w/w | Particle Size (D10, D50 and D90) [6]: no significant evolution | Polymorphic form (XRPD) [6]: no significant change | Purity and total impurities [6]: no significant evolution | Water Content [6]: no significant evolution | appearance [6]: no significant change | Assay HPLC (over the course of the study): no significant evolution | microbial results (over the course of the study): in specifications | period over which stability is confirmed (−20° C. (Table 41)): 12 months | Appearance (White to off-white solid) (−20° C., 0 months): C | Assay by HPLC-UV (Anhydrous & Solvent Free basis) 97.0-103.0% w/w (−20° C., 0 months): 101.6 % w/w | Each unidentified impurity (NMT 0.5% area) (−20° C., 0 months): C | Particle Size (Malvern) D50 (Report result μm) (−20° C., 0 months): 91.4 μm | Particle Size (Malvern) D90 (Report result μm) (−20° C., 0 months): 201.3 μm | Particle Size (Malvern) Dl0 (Report result μm) (−20° C., 0 months): 28.2 μm | Polymorphic form (XRPD) (Consistent with form 2 reference diffractogram) (−20° C., 0 months): C | Purity by HPLC (NLT 98.0% area) (−20° C., 0 months): 100.0 % area | Total impurities (NMT 2.0% area) (−20° C., 0 months): 0.00 % area | Water Content by Kf (Report result % w/w) (−20° C., 0 months): 9.3 % w/w | Appearance (White to off-white solid) (−20° C., 1 months): C | Assay by HPLC-UV (Anhydrous & Solvent Free basis) 97.0-103.0% w/w (−20° C., 1 months): 101.5 % w/w | Each unidentified impurity (NMT 0.5% area) (−20° C., 1 months): C | Particle Size (Malvern) D50 (Report result μm) (−20° C., 1 months): 89.5 μm | Particle Size (Malvern) D90 (Report result μm) (−20° C., 1 months): 193.0 μm | Particle Size (Malvern) Dl0 (Report result μm) (−20° C., 1 months): 27.5 μm | Polymorphic form (XRPD) (Consistent with form 2 reference diffractogram) (−20° C., 1 months): C | Purity by HPLC (NLT 98.0% area) (−20° C., 1 months): 100.0 % area | Total impurities (NMT 2.0% area) (−20° C., 1 months): 0.00 % area | Water Content by Kf (Report result % w/w) (−20° C., 1 months): 9.3 % w/w | Appearance (White to off-white solid) (−20° C., 2 months): C | Assay by HPLC-UV (Anhydrous & Solvent Free basis) 97.0-103.0% w/w (−20° C., 2 months): 100.2 % w/w | Each unidentified impurity (NMT 0.5% area) (−20° C., 2 months): C | Particle Size (Malvern) D50 (Report result μm) (−20° C., 2 months): 90.6 μm | Particle Size (Malvern) D90 (Report result μm) (−20° C., 2 months): 189.0 μm | Particle Size (Malvern) Dl0 (Report result μm) (−20° C., 2 months): 28.8 μm | Polymorphic form (XRPD) (Consistent with form 2 reference diffractogram) (−20° C., 2 months): C | Purity by HPLC (NLT 98.0% area) (−20° C., 2 months): 100.0 % area | Total impurities (NMT 2.0% area) (−20° C., 2 months): 0.00 % area | Water Content by Kf (Report result % w/w) (−20° C., 2 months): 9.4 % w/w | Appearance (White to off-white solid) (−20° C., 3 months): C | Assay by HPLC-UV (Anhydrous & Solvent Free basis) 97.0-103.0% w/w (−20° C., 3 months): 100.0 % w/w | Each unidentified impurity (NMT 0.5% area) (−20° C., 3 months): C | Particle Size (Malvern) D50 (Report result μm) (−20° C., 3 months): 89.4 μm | Particle Size (Malvern) D90 (Report result μm) (−20° C., 3 months): 195.0 μm | Particle Size (Malvern) Dl0 (Report result μm) (−20° C., 3 months): 27.2 μm | Polymorphic form (XRPD) (Consistent with form 2 reference diffractogram) (−20° C., 3 months): C | Purity by HPLC (NLT 98.0% area) (−20° C., 3 months): 100.0 % area | Total impurities (NMT 2.0% area) (−20° C., 3 months): 0.00 % area | Water Content by Kf (Report result % w/w) (−20° C., 3 months): 9.5 % w/w | Appearance (White to off-white solid) (−20° C., 6 months): C | Assay by HPLC-UV (Anhydrous & Solvent Free basis) 97.0-103.0% w/w (−20° C., 6 months): 100.1 % w/w | Each unidentified impurity (NMT 0.5% area) (−20° C., 6 months): C | Particle Size (Malvern) D50 (Report result μm) (−20° C., 6 months): 89.0 μm | Particle Size (Malvern) D90 (Report result μm) (−20° C., 6 months): 192.0 μm | Particle Size (Malvern) Dl0 (Report result μm) (−20° C., 6 months): 27.5 μm | Polymorphic form (XRPD) (Consistent with form 2 reference diffractogram) (−20° C., 6 months): C | Purity by HPLC (NLT 98.0% area) (−20° C., 6 months): 100.0 % area | Total impurities (NMT 2.0% area) (−20° C., 6 months): 0.00 % area | Water Content by Kf (Report result % w/w) (−20° C., 6 months): 9.3 % w/w | Appearance (White to off-white solid) (−20° C., 9 months): C | Assay by HPLC-UV (Anhydrous & Solvent Free basis) 97.0-103.0% w/w (−20° C., 9 months): 100.4 % w/w | Each unidentified impurity (NMT 0.5% area) (−20° C., 9 months): C | Particle Size (Malvern) D50 (Report result μm) (−20° C., 9 months): 91.8 μm | Particle Size (Malvern) D90 (Report result μm) (−20° C., 9 months): 196.0 μm | Particle Size (Malvern) Dl0 (Report result μm) (−20° C., 9 months): 29.5 μm | Polymorphic form (XRPD) (Consistent with form 2 reference diffractogram) (−20° C., 9 months): C | Purity by HPLC (NLT 98.0% area) (−20° C., 9 months): 100.0 % area | Total impurities (NMT 2.0% area) (−20° C., 9 months): 0.00 % area | Water Content by Kf (Report result % w/w) (−20° C., 9 months): 9.3 % w/w | Appearance (White to off-white solid) (−20° C., 12 months): C | Assay by HPLC-UV (Anhydrous & Solvent Free basis) 97.0-103.0% w/w (−20° C., 12 months): 99.9 % w/w | Each unidentified impurity (NMT 0.5% area) (−20° C., 12 months): C | Particle Size (Malvern) D50 (Report result μm) (−20° C., 12 months): 92.2 μm | Particle Size (Malvern) D90 (Report result μm) (−20° C., 12 months): 201.0 μm | Particle Size (Malvern) Dl0 (Report result μm) (−20° C., 12 months): 28.7 μm | Polymorphic form (XRPD) (Consistent with form 2 reference diffractogram) (−20° C., 12 months): C | Purity by HPLC (NLT 98.0% area) (−20° C., 12 months): 100.0 % area | Total impurities (NMT 2.0% area) (−20° C., 12 months): 0.00 % area | Water Content by Kf (Report result % w/w) (−20° C., 12 months): 9.2 % w/w
